Laboratory results reported in ChEMBL document CHEMBL3526037, “Evaluation of the relationship between sex, polymorphisms in CYP2C8 and CYP2C9, and pharmacokinetics of angiotensin receptor blockers” (Drug Metab Dispos, 2013).

What was measured:
Format in all cases: ADME, organism-based
[1] = AUC in human plasma expressing CYP2C8*1/*1 polymorphism treated with losartan at 50 mg by LC/MS/MS analysis
[2] = Cmax in human plasma expressing CYP2C8*1/*1 polymorphism treated with losartan at 50 mg by LC/MS/MS analysis; design: dose 50 mg
[3] = AUC in men plasma treated with losartan at 50 mg by LC/MS/MS analysis; details: male, human
[4] = AUC in women plasma treated with losartan at 50 mg by LC/MS/MS analysis; details: female, human
[5] = Cmax in men plasma treated with losartan at 50 mg by LC/MS/MS analysis; design: dose 50 mg; details: male, human
[6] = Cmax in women plasma treated with losartan at 50 mg by LC/MS/MS analysis; design: dose 50 mg; details: female, human
[7] = Half life in men plasma treated with losartan at 50 mg by LC/MS/MS analysis; details: male, human
[8] = Half life in women plasma treated with losartan at 50 mg by LC/MS/MS analysis; details: female, human
[9] = Tmax in human plasma expressing CYP2C8*1/*1 polymorphism treated with losartan at 50 mg by LC/MS/MS analysis
[10] = AUC in human plasma expressing CYP2C8*3 allele carrier polymorphism treated with losartan at 50 mg by LC/MS/MS analysis
[11] = Cmax in human plasma expressing CYP2C8*3 allele carrier polymorphism treated with losartan at 50 mg by LC/MS/MS analysis; design: dose 50 mg
[12] = Half life in human plasma expressing CYP2C8*3 allele carrier polymorphism treated with losartan at 50 mg by LC/MS/MS analysis
[13] = Tmax in human plasma expressing CYP2C8*3 allele carrier polymorphism treated with losartan at 50 mg by LC/MS/MS analysis
[14] = AUC in human plasma expressing CYP2C8*4 allele carrier polymorphism treated with losartan at 50 mg by LC/MS/MS analysis
[15] = Cmax in human plasma expressing CYP2C8*4 allele carrier polymorphism treated with losartan at 50 mg by LC/MS/MS analysis; design: dose 50 mg
[16] = Half life in human plasma expressing CYP2C8*4 allele carrier polymorphism treated with losartan at 50 mg by LC/MS/MS analysis
[17] = Tmax in human plasma expressing CYP2C8*4 allele carrier polymorphism treated with losartan at 50 mg by LC/MS/MS analysis
[18] = AUC in human plasma expressing CYP2C9*1/*1 polymorphism treated with losartan at 50 mg by LC/MS/MS analysis
[19] = Cmax in human plasma expressing CYP2C9*1/*1 polymorphism treated with losartan at 50 mg by LC/MS/MS analysis; design: dose 50 mg
[20] = Half life in human plasma expressing CYP2C9*1/*1 polymorphism treated with losartan at 50 mg by LC/MS/MS analysis
[21] = Tmax in men plasma treated with losartan at 50 mg by LC/MS/MS analysis; details: male, human
[22] = Tmax in women plasma treated with losartan at 50 mg by LC/MS/MS analysis; details: female, human
[23] = Half life in human plasma expressing CYP2C8*1/*1 polymorphism treated with losartan at 50 mg by LC/MS/MS analysis
[24] = Tmax in human plasma expressing CYP2C9*1/*1 polymorphism treated with losartan at 50 mg by LC/MS/MS analysis
[25] = AUC in human plasma expressing CYP2C9*2 allele carrier polymorphism treated with losartan at 50 mg by LC/MS/MS analysis
[26] = Cmax in human plasma expressing CYP2C9*2 allele carrier polymorphism treated with losartan at 50 mg by LC/MS/MS analysis; design: dose 50 mg
[27] = Half life in human plasma expressing CYP2C9*2 allele carrier polymorphism treated with losartan at 50 mg by LC/MS/MS analysis
[28] = Tmax in human plasma expressing CYP2C9*2 allele carrier polymorphism treated with losartan at 50 mg by LC/MS/MS analysis
[29] = AUC in human plasma expressing CYP2C9*3 allele carrier polymorphism treated with losartan at 50 mg by LC/MS/MS analysis
[30] = Cmax in human plasma expressing CYP2C9*3 allele carrier polymorphism treated with losartan at 50 mg by LC/MS/MS analysis; design: dose 50 mg
[31] = Half life in human plasma expressing CYP2C9*3 allele carrier polymorphism treated with losartan at 50 mg by LC/MS/MS analysis
[32] = Tmax in human plasma expressing CYP2C9*3 allele carrier polymorphism treated with losartan at 50 mg by LC/MS/MS analysis

SMILES: CCCCc1nc(Cl)c(C(=O)O)n1Cc1ccc(-c2ccccc2-c2nn[nH]n2)cc1 [CARBOXYLIC ACID METABOLITE]
- AUC [1]: 2330 ng·h/mL
- Cmax [2]: 249 ng/mL
- AUC [3]: 1810 ng·h/mL
- AUC [4]: 2580 ng·h/mL
- Cmax [5]: 209 ng/mL
- Cmax [6]: 301 ng/mL
- half-life [7]: 4.9 h
- half-life [8]: 4.8 h
- Tmax [9]: 3.9 h
- AUC [10]: 1500 ng·h/mL
- Cmax [11]: 196 ng/mL
- half-life [12]: 5.1 h
- Tmax [13]: 3.7 h
- AUC [14]: 2270 ng·h/mL
- Cmax [15]: 382 ng/mL
- half-life [16]: 4.6 h
- Tmax [17]: 2.8 h
- AUC [18]: 2140 ng·h/mL
- Cmax [19]: 292 ng/mL
- half-life [20]: 4.6 h
- Tmax [21]: 3.7 h
- Tmax [22]: 3.7 h
- half-life [23]: 4.8 h
- Tmax [24]: 3.7 h
- AUC [25]: 1770 ng·h/mL
- Cmax [26]: 224 ng/mL
- half-life [27]: 4.9 h
- Tmax [28]: 3.5 h
- AUC [29]: 2860 ng·h/mL
- Cmax [30]: 154 ng/mL
- half-life [31]: 5.7 h
- Tmax [32]: 4.3 h
